Experimental data taken from patent US20030138429A1, “Compositions and methods for inhibiting metastasis” (priority 2001, published 2003).

Legend:
[1] = test system: 1-LN cells; experiment: In vitro Matrigel invasion assay (modified Boyden chamber); assay type: cell-based, human; conditions: cells incubated with Pg (Pg 2ε) plus inhibitor, in words
Experimental: In Vitro Invasion Assay—The invasive activity in vitro was assessed by determining the ability of 1-LN cells to invade Matrigel® [47]. Polycarbonate filters (8-μm pore size; Becton Dickinson, Franklin Lakes, N.J.) were coated with Matrigel (12 μg/filter) and placed in a modified Boyden chamber. Cells (1×10^5) were added to the upper chamber in serum-free RPMI 1640 medium, or medium containing purified Pg 2 glycoforms in the absence and presence of anti-DPP IV, anti-u-PA or anti-MMP-9 IgGs, and incubated for 48 h in a humidified atmosphere. Following incubation, non-invading cells were removed from the upper chamber with a cotton swab, and filters were excised and stained with Cyto-Quik™ (Fisher Scientific, Fair Lawn, N.J.). Cells on the lower surface of the filter were enumerated using an ocular micrometer and counting a minimum of five high-powered fields. Each experiment was performed twice with triplicate samples.
Effect of Pg on 1-LN Cellular Invasion—Pg enhances the ability of prostate cancer PC-3 and DU-145 cell lines to penetrate the synthetic basement membrane Matrigel® [54]. To determine whether Pg regulates invasion via secretion of MMP-9, 1-LN cells were incubated with different inhibiting antibodies in the presence of purified Pg 2 glycoforms.

[2] = test system: 1-LN human prostate tumor cells; experiment: Binding of 125I-labeled Pg 2 glycoforms to 1-LN cells; conditions: 125I-labeled glycoform 0.1 μM, increasing concentrations of inhibitor
Experimental: Ligand Binding Analysis—Cells were grown in tissue culture plates until the monolayers were confluent. Prior to use in binding assays, the cells were washed in HBSS. All binding assays were performed at 4° C. in RPMI 1640 containing 2% bovine serum ablumin (BSA). Increasing concentrations of ^125I-labeled Pg 2 glycoforms were incubated with cells for 60 min in 48-well or 96-well culture plates, respectively. Free ligand was separated from bound by aspirating the incubation mixture by and washing the cell monolayers rapidly three times with RPMI 1640 containing 2% BSA. The cells were then lyzed with 0.1 M NaOH, and bound radioactivity was determined in a Pharmacia LKB Biotechnology 1272-gamma counter. Molecules of ligand bound were calculated after substraction of non-specific binding measured in the presence of nonlabeled 100 μM Pg 2. Estimates for dissociation constant (Kd) values and maximal binding of Pg 2 glycoforms (Bmax) were determined by fitting data directly to the Langmuir isotherm using the statistical program SYStat® for Windows.
Binding of Single Pg 2 Glycoforms to 1-LN Human Prostate Tumor Cells—Binding of ^125I-labeled single Pg 2 glycoforms to 1-LN cells was determined as described under Experimental Procedures. Native Pg 2 has six glycoforms which differ in their sialic acid content.
In order to assess the binding mechanism of the individual Pg 2 glycoforms to 1-LN cells, we studied their activation by cells incubated with each glycoform in the presence of 6-aminohexanoic acid (6-AHA) and L-lactose. The antifibrinolytic amino acid 6-AHA prevents interaction of Pg L-lysine binding sites with several cell membrane-associated components. L-lactose is a sugar which intereferes with binding of Neu 5-AC (α2-3) or (α2-6) residues to sialic acid binding proteins and inhibits binding of Native Pg 2 to DPP IV on the surface of rheumatoid synovial fibroblasts.

[3] = test system: 1-LN cells; experiment: MMP-9 activity in serum-free culture medium of 1-LN cells (quantitative gelatin zymography); assay type: cell-based, human
Experimental: Gelatin Zymography—Protein samples were electrophoresed on gelatin-containing 0.75 mm thick 10% polyacrylamide gels in the presence of SDS under nonreducing conditions. After completion of the electrophoretic run, the gels were incubated with two changes of 2.5% Triton X-100 for 1 h, followed by incubation for 18 h at 37° C. in 0.1 M glycine-NaOH, pH 8.3, containing 1 mM CaCl2, and […], before staining with Coomassie Brilliant Blue R-250 to visualize the lysis bands.
MMP-9 Activity in Solution—MMP-9 activity was measured in tissue culture supernatants by quantitative zymography using as a standard MMP-9 purified by affinity chromatography on gelatin-Sepharose from 1-LN cell conditioned medium (10 liters). Conditioned medium (50 μl), from 1-LN cell monolayers in 48 well culture plates (1.7×10^6 cells/well) incubated with Pg 2 glycoforms and/or inhibitors of Pg binding or activation, were electrophoresed on gelatin-containing gels and the degree of lysis was quantified using a Gelman ACD-15 Automatic Computing Densitometer (Gelman Instrument Company, Ann Arbor, Mich.). Values were determined by integrating the density of the selected bands and expressed in units×mm^2. Each gel was scanned three times and the average value of the integrated density of the bands was used to determine levels of MMP-9 from calibration curves constructed with purified active MMP-9 electrophoresed under the same conditions. The statistical analysis of the data was performed on an IBM 433 DX/S computer using the program SYSTAT® for Windows 95. The statistical significance of differences between means was evaluated by Student's t-test. MMP-9 was positively identified in conditioned medium by electrophoretic separation in 10% SDS-polyacrylamide gels (SDS-PAGE), electroblot of the electrophoresed proteins to nitrocellulose membranes and reaction with an anti-MMP-9 mAb (1 μg/ml) followed by reaction with a secondary alkaline phosphatase conjugated anti-mouse IgG. Detection was performed by reaction with the alkaline phosphatase substrate 5-bromo-4-chloro-3-indolyl phosphate in the presence of nitroblue tetrazolium (1 mM each) in 10 mM Tris-HCl, pH 8.5.
Effect of Pg on the Expression of MMP-9 by 1-LN Cells—Cells were seeded into 48-well culture plates and grown in RPMI 1640 containing 10% fetal bovine serum. Confluent monolayers were then incubated for 24 h with quiescent culture medium containing RPMI 1640 and 0.5% fetal bovine serum. Each individual Pg 2 glycoform (0.1 μM) was added in triplicate to cell monolayers in 300 μl of serum-free RPMI 1640 and incubated for 24 h at 37° C. Culture medium was collected to measure secretion of MMP-9 as described under Experimental Procedures. Prior to analyses of the MMP-9 secreted into the medium by 1-LN cells in the presence of individual Pg 2 glycoforms, we purified MMP-9 from conditioned medium (5 liters) by the technique of Masure et al.. […] A similar analysis of the Mr˜95,000 protein yielded the sequence APRQRQ, corresponding to the amino-terminal sequence of proMMP-9. […] We then proceeded to analyze the MMP-9 secreted into the medium by 1-LN cells incubated with each individual Pg 2 glycoform in serum-free culture medium, using the purified MMP-9 as a standard for quantification by gelatin zymography. These analyses (FIG. 7A) show a major band of active protein with a Mr˜85,000. […] Samples of these conditioned media were also subjected to SDS-PAGE under reducing conditions, electroblotted to nitrocellulose membranes and then reacted with an anti-MMP-9 mAb (FIG. 7B). […] A 4-fold decrease in the production of MMP-9 by cells co-incubated with anti-DPP IV mAb 236.3 and Pg 2ε (p<0.001) (Table II) is clearly observed in the conditioned medium (Lane 6 on FIGS. 8A and 8B, respectively).

## FN peptide L1768 TSRPA: polypeptide comprising the fibronectin (FN) primary sequence L1768 TSRPA that mediates FN binding to CD26/DPP IV (FPAPDG; UniProt P02751 1768-1773, looked up, fragment)
[1]
  Effect on Pg-induced Matrigel invasion by 1-LN cells: inhibited Pg-induced Matrigel invasion by 1-LN cells in a dose-dependent manner

## NCCCCCC(=O)O [Glycoform 6-AHA, 6-aminohexanoic acid, reference compound]
[2]
  Inhibition of binding of single Pg 2 glycoforms to 1-LN cells: inhibited the binding of Pg 2α and Pg 2β
[3]; SFM + additive alone, no Pg 2 glycoform, 24 h
  Active MMP-9: 0.61 ± 0.14 ng/mL
[3]; co-incubated with 6-AHA (100 mM) and individual Pg 2 glycoforms, versus controls
  Changes in the production of MMP-9: did not show any major changes

## angiostatin
[1]
  Effect on Pg-induced Matrigel invasion by 1-LN cells: total inhibition
